Reference: US20220251163A1 (Sinopep-Allsino Biopharmaceutical Co., Ltd., priority 2019, published 2022)
Where a SMILES comes first, the peptide text is derived from it.

Tests used:
mGLP-1R = biological target: T1, mGLP-1R (Mus musculus, UniProt O35659); assay: GLP-1R agonist activity, cAMP in transfected HEK293 cells; assay type: cell-based; settings: HEK293 cells transfected with GLP-1R, cAMP, 20 min incubation; read-out: mGLP-1R EC50
T1 construct: expressed in transfected cells; host or cells: HEK293
T1 sequence (O35659 22-463): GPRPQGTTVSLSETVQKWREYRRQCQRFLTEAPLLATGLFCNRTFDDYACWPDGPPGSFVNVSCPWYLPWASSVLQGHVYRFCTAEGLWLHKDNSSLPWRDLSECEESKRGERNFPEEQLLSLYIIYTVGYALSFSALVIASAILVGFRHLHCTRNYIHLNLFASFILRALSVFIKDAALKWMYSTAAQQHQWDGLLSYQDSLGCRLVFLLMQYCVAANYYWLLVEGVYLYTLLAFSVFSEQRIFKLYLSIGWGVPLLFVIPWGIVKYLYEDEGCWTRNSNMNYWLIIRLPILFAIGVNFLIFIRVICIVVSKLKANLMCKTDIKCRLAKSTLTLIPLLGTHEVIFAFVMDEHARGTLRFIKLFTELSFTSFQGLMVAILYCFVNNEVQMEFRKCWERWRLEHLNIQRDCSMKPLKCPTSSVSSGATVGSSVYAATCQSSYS

mGIPR = biological target: T2, mGIPR (Mus musculus, UniProt Q0P543); assay: GIPR agonist activity, cAMP in transfected HEK293 cells; assay type: cell-based; settings: HEK293 cells transfected with GIPR, cAMP, 20 min incubation; read-out: mGIPR EC50
T2 construct: expressed in transfected cells; host or cells: HEK293
T2 sequence (Q0P543 19-460): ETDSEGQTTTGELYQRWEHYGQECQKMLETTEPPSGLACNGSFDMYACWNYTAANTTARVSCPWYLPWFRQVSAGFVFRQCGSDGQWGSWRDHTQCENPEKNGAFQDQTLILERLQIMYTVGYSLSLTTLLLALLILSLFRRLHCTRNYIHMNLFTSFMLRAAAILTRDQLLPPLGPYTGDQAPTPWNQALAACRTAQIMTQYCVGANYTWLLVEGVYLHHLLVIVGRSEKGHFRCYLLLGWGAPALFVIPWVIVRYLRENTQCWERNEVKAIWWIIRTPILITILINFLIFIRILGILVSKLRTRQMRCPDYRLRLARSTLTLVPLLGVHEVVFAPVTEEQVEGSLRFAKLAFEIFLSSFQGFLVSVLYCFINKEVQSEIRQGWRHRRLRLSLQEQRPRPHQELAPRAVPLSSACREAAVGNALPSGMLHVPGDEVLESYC
Description: HEK293 cells were co-transfected with cDNA encoding GLP-1R or GIPR. In a test for determining the compound, the cells were inoculated in a 96-well plate 2 h in advance, the polypeptide compound was dissolved with DMSO, and diluted to different multiples with a culture medium containing 0.1% bovine serum albumin and added to the co-transfected cells.

Compound	EC50 (mGLP-1R)	EC50 (mGIPR)
CC[C@H](C)[C@H](NC(=O)[C@H](CC(C)C)NC(=O)[C@H](Cc1c[nH]c2ccccc12)NC(=O)[C@H](CCC(N)=O)NC(=O)[C@@H](NC(=O)[C@H](Cc1ccccc1)NC(=O)[C@H](C)NC(=O)[C@H](CCCCNC(=O)COCCOCCNC(=O)COCCOCCNC(=O)CC[C@H](NC(=O)CCCCCCCCCCCCCCCCC(=O)O)C(=O)O)NC(=O)[C@H](CCC(N)=O)NC(=O)[C@H](C)NC(=O)[C@@H](NC(=O)[C@H](CCCCN)NC(=O)[C@H](CC(=O)O)NC(=O)[C@H](CC(C)C)NC(=O)C1(NC(=O)[C@@H](NC(=O)[C@H](CO)NC(=O)[C@H](Cc2ccc(O)cc2)NC(=O)[C@H](CC(=O)O)NC(=O)[C@H](CO)NC(=O)[C@@H](NC(=O)[C@H](Cc2ccccc2)NC(=O)[C@@H](NC(=O)CNC(=O)[C@H](CCC(=O)O)NC(=O)C(C)(C)NC(=O)[C@@H](N)Cc2ccc(O)cc2)[C@@H](C)O)[C@@H](C)O)[C@@H](C)CC)CCCC1)[C@@H](C)CC)C(C)C)C(=O)N[C@@H](C)C(=O)NCC(=O)NCC(=O)N1CCC[C@H]1C(=O)N[C@@H](CO)C(=O)N[C@@H](CO)C(=O)NCC(=O)N[C@@H](C)C(=O)N1CCC[C@H]1C(=O)N1CCC[C@H]1C(=O)N1CCC[C@H]1C(=O)N[C@@H](CO)C(N)=O [ID NO: 10]	0.00889 nM	0.00811 nM
CCCCCCCCCCCCCCCC(=O)N[C@@H](CCC(=O)NCCCC[C@H](NC(=O)[C@H](CCC(N)=O)NC(=O)[C@H](C)NC(=O)[C@@H](NC(=O)[C@H](CCCCN)NC(=O)[C@H](CC(=O)O)NC(=O)[C@H](CC(C)C)NC(=O)C(C)(C)NC(=O)[C@@H](NC(=O)[C@H](CO)NC(=O)[C@H](Cc1ccc(O)cc1)NC(=O)[C@H](CC(=O)O)NC(=O)[C@H](CO)NC(=O)[C@@H](NC(=O)[C@H](Cc1ccccc1)NC(=O)[C@@H](NC(=O)CNC(=O)[C@H](CCC(=O)O)NC(=O)C(C)(C)NC(=O)[C@@H](N)Cc1ccc(O)cc1)[C@@H](C)O)[C@@H](C)O)[C@@H](C)CC)[C@@H](C)CC)C(=O)N[C@@H](C)C(=O)N[C@@H](Cc1ccccc1)C(=O)N[C@H](C(=O)N[C@@H](CCC(N)=O)C(=O)N[C@@H](Cc1c[nH]c2ccccc12)C(=O)N[C@@H](CC(C)C)C(=O)N[C@H](C(=O)N[C@@H](C)C(=O)NCC(=O)NCC(=O)N1CCC[C@H]1C(=O)N[C@@H](CO)C(=O)N[C@@H](CO)C(=O)NCC(=O)N[C@@H](C)C(=O)N1CCC[C@H]1C(=O)N1CCC[C@H]1C(=O)N1CCC[C@H]1C(=O)N[C@@H](CO)C(N)=O)[C@@H](C)CC)C(C)C)C(=O)O [ID NO: 11]	0.0243 nM	0.00632 nM
CCCCCCCCCCCCCCCC(=O)N[C@@H](CCC(=O)NCCCC[C@H](NC(=O)[C@H](CCC(N)=O)NC(=O)[C@H](C)NC(=O)[C@@H](NC(=O)[C@H](CCCCN)NC(=O)[C@H](CC(=O)O)NC(=O)[C@H](CC(C)C)NC(=O)[C@@H](NC(=O)[C@@H](NC(=O)[C@H](CO)NC(=O)[C@H](Cc1ccc(O)cc1)NC(=O)[C@H](CC(=O)O)NC(=O)[C@H](CO)NC(=O)[C@@H](NC(=O)[C@H](Cc1ccccc1)NC(=O)[C@@H](NC(=O)CNC(=O)[C@H](CCC(=O)O)NC(=O)[C@@H](NC(=O)[C@@H](N)Cc1ccc(O)cc1)C(C)C)[C@@H](C)O)[C@@H](C)O)[C@@H](C)CC)C(C)C)[C@@H](C)CC)C(=O)N[C@@H](C)C(=O)N[C@@H](Cc1ccccc1)C(=O)N[C@H](C(=O)N[C@@H](CCC(N)=O)C(=O)N[C@@H](Cc1c[nH]c2ccccc12)C(=O)N[C@@H](CC(C)C)C(=O)N[C@H](C(=O)N[C@@H](C)C(=O)NCC(=O)NCC(=O)N1CCC[C@H]1C(=O)N[C@@H](CO)C(=O)N[C@@H](CO)C(=O)NCC(=O)N[C@@H](C)C(=O)N1CCC[C@H]1C(=O)N1CCC[C@H]1C(=O)N1CCC[C@H]1C(=O)N[C@@H](CO)C(N)=O)[C@@H](C)CC)C(C)C)C(=O)O [ID NO: 12] (HELM PEPTIDE1{Y.V.E.G.T.F.T.S.D.Y.S.I.V.L.D.K.I.A.Q.K.A.F.V.Q.W.L.I.A.G.G.P.S.S.G.A.P.P.P.S.[am]}|PEPTIDE2{[CCCCCCCCCCCCCCCC(=O)[*:2]].[gGlu]}$PEPTIDE1,PEPTIDE2,20:R3-2:R2$$$V2.0)	0.0561 nM	0.00879 nM
CCCCCCCCCCCCCCCC(=O)N[C@@H](CCC(=O)NCCCC[C@H](NC(=O)[C@H](CCC(N)=O)NC(=O)[C@H](C)NC(=O)[C@@H](NC(=O)[C@H](CCCCN)NC(=O)[C@H](CC(=O)O)NC(=O)[C@H](CC(C)C)NC(=O)C1(NC(=O)[C@@H](NC(=O)[C@H](CO)NC(=O)[C@H](Cc2ccc(O)cc2)NC(=O)[C@H](CC(=O)O)NC(=O)[C@H](CO)NC(=O)[C@@H](NC(=O)[C@H](Cc2ccccc2)NC(=O)[C@@H](NC(=O)CNC(=O)[C@H](CCC(=O)O)NC(=O)C2(NC(=O)[C@@H](N)Cc3ccc(O)cc3)CCCC2)[C@@H](C)O)[C@@H](C)O)[C@@H](C)CC)CCCC1)[C@@H](C)CC)C(=O)N[C@@H](C)C(=O)N[C@@H](Cc1ccccc1)C(=O)N[C@H](C(=O)N[C@@H](CCC(N)=O)C(=O)N[C@@H](Cc1c[nH]c2ccccc12)C(=O)N[C@@H](CC(C)C)C(=O)N[C@H](C(=O)N[C@@H](C)C(=O)NCC(=O)NCC(=O)N1CCC[C@H]1C(=O)N[C@@H](CO)C(=O)N[C@@H](CO)C(=O)NCC(=O)N[C@@H](C)C(=O)N1CCC[C@H]1C(=O)N1CCC[C@H]1C(=O)N1CCC[C@H]1C(=O)N[C@@H](CO)C(N)=O)[C@@H](C)CC)C(C)C)C(=O)O [ID NO: 14]	0.0311 nM	0.0517 nM
CCCCCCCCCCCCCCCC(=O)N[C@@H](CCC(=O)NCCCC[C@H](NC(=O)[C@H](CCC(N)=O)NC(=O)[C@H](C)NC(=O)[C@@H](NC(=O)[C@H](CCCCN)NC(=O)[C@H](CC(=O)O)NC(=O)[C@H](CC(C)C)NC(=O)[C@H](C)NC(=O)[C@@H](NC(=O)[C@H](CO)NC(=O)[C@H](Cc1ccc(O)cc1)NC(=O)[C@H](CC(=O)O)NC(=O)[C@H](CO)NC(=O)[C@@H](NC(=O)[C@H](Cc1ccccc1)NC(=O)[C@@H](NC(=O)CNC(=O)[C@H](CCC(=O)O)NC(=O)[C@H](C)NC(=O)[C@@H](N)Cc1ccc(O)cc1)[C@@H](C)O)[C@@H](C)O)[C@@H](C)CC)[C@@H](C)CC)C(=O)N[C@@H](C)C(=O)N[C@@H](Cc1ccccc1)C(=O)N[C@H](C(=O)N[C@@H](CCC(N)=O)C(=O)N[C@@H](Cc1c[nH]c2ccccc12)C(=O)N[C@@H](CC(C)C)C(=O)N[C@H](C(=O)N[C@@H](C)C(=O)NCC(=O)NCC(=O)N1CCC[C@H]1C(=O)N[C@@H](CO)C(=O)N[C@@H](CO)C(=O)NCC(=O)N[C@@H](C)C(=O)N1CCC[C@H]1C(=O)N1CCC[C@H]1C(=O)N1CCC[C@H]1C(=O)N[C@@H](CO)C(N)=O)[C@@H](C)CC)C(C)C)C(=O)O [ID NO: 15]	0.0429 nM	0.0532 nM
CCCCCCCCCCCCCCCC(=O)N[C@@H](CCC(=O)NCCCC[C@H](NC(=O)[C@H](CCC(N)=O)NC(=O)[C@H](C)NC(=O)[C@@H](NC(=O)[C@H](CCCCN)NC(=O)[C@H](CC(=O)O)NC(=O)[C@H](CC(C)C)NC(=O)C(C)(C)NC(=O)[C@@H](NC(=O)[C@H](CO)NC(=O)[C@H](Cc1ccc(O)cc1)NC(=O)[C@H](CC(=O)O)NC(=O)[C@H](CO)NC(=O)[C@@H](NC(=O)[C@H](Cc1ccccc1)NC(=O)[C@@H](NC(=O)CNC(=O)[C@H](CCC(=O)O)NC(=O)[C@H](C)NC(=O)[C@@H](N)Cc1ccc(O)cc1)[C@@H](C)O)[C@@H](C)O)[C@@H](C)CC)[C@@H](C)CC)C(=O)N[C@@H](C)C(=O)N[C@@H](Cc1ccccc1)C(=O)N[C@H](C(=O)N[C@@H](CCC(N)=O)C(=O)N[C@@H](Cc1c[nH]c2ccccc12)C(=O)N[C@@H](CC(C)C)C(=O)N[C@H](C(=O)N[C@@H](C)C(=O)NCC(=O)NCC(=O)N1CCC[C@H]1C(=O)N[C@@H](CO)C(=O)N[C@@H](CO)C(=O)NCC(=O)N[C@@H](C)C(=O)N1CCC[C@H]1C(=O)N1CCC[C@H]1C(=O)N1CCC[C@H]1C(=O)N[C@@H](CO)C(N)=O)[C@@H](C)CC)C(C)C)C(=O)O [ID NO: 16] (HELM PEPTIDE1{Y.A.E.G.T.F.T.S.D.Y.S.I.[Aib].L.D.K.I.A.Q.K.A.F.V.Q.W.L.I.A.G.G.P.S.S.G.A.P.P.P.S.[am]}|PEPTIDE2{[CCCCCCCCCCCCCCCC(=O)[*:2]].[gGlu]}$PEPTIDE1,PEPTIDE2,20:R3-2:R2$$$V2.0)	0.0425 nM	0.00965 nM
